This is an account of results in ChEMBL document CHEMBL1201862, “PubChem BioAssay data set” (2004).

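Growth conditions: 96-well plates. Treatment: test compound, 48 hours, 5 concentrations. Analysis: linear interpolation between bracketing concentrations; unreached endpoints set to highest concentration. The concentration for 50% growth inhibition is given as GI50.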 Active and inactive are the calls of the source. No stated cut-off is given here; in the data, active = GI50 up to about 1.1 µM and inactive = higher. *1 amine or outer side, *2 acyl side, *3 side chain or, on linkers, in order; H or OH if unused. Where a SMILES comes first, the peptide text is derived from it. Bridges are numbered along the chain shown (N, C = ends). Roman numbers before positions name the chains, in order. [ ]: non-standard residue; d: D form. Actinocin(9to1) = Cc1c2oc3c(C)ccc(C(=O)[*:1])c3nc-2c(C(=O)[*:2])c(N)c1=O; NMeV = CN[CH](C(=O)O)C(C)C; Sar = CNCC(=O)O

Some test systems named below: M14; SK-OV-3; CCRF-CEM; EKVX; 786-0; NCI-H226; SN12C; OVCAR-3; RXF 393; COLO 205; A498; UACC-257; A549; NCI-H522; SK-MEL-5; OVCAR-4; SR; Malme-3M; KM12; HCT-15.
Common to all, as to test: DTP human tumour cell line panel, 48 h

The term GI50 denotes the concentration at which growth is held to half of that of the control. In the case of `COc1cc(=O)oc(/C=C/C=O)c1C`, the GI50 in the experiment on M14 was 17.9 µM (inactive); with SK-OV-3 it was 27.2 µM (inactive); in the experiment on CCRF-CEM, 5.36 µM (inactive); with EKVX it was 35.7 µM (inactive); in the experiment on 786-0 it was 20.7 µM (inactive); in the experiment with NCI-H226 it was 31.2 µM (inactive). Moreover, the GI50 is 8.24 µM (inactive) in the experiment on SN12C; 19 µM (inactive) in the experiment with OVCAR-3; 18.8 µM (inactive) with RXF 393; 16.4 µM (inactive) with COLO 205; > 100 µM (inactive) in the experiment on A498; 18.9 µM (inactive) in the experiment on UACC-257. Further, the GI50 in the experiment on A549 was > 100 µM (inactive); in the experiment on NCI-H522, 19.8 µM (inactive); in the experiment with SK-MEL-5, 20.6 µM (inactive); in the experiment with OVCAR-4, 17 µM (inactive); in the experiment with SR, 2.79 µM (inactive); with Malme-3M it was 21.7 µM (inactive). For the same molecule, the GI50 in the experiment with KM12 was 21.9 µM (inactive).
As to `CN(C)N1C(=O)C(=O)N(c2cccc3ccccc23)C1=O`, the GI50 in the experiment on M14, with SK-OV-3, with CCRF-CEM, with EKVX, with NCI-H226 and in the experiment on SN12C was > 10 µM (inactive) each time. For the same molecule, the GI50 in the experiment on OVCAR-3, in the experiment with RXF 393, in the experiment on COLO 205, in the experiment with A498, in the experiment on A549 and with NCI-H522 was > 10 µM (inactive) in each case. The GI50 in the experiment with SK-MEL-5 is > 10 µM (inactive); with HCT-15 it was greater than 10 µM; in the experiment with OVCAR-4, > 10 µM (inactive); in the experiment on SR, > 10 µM (inactive); in the experiment on Malme-3M it was > 10 µM (inactive); with KM12, > 10 µM (inactive).
For `CC1=NC(=O)CNN1C1=NNC2(C(=O)N1)c1ccccc1-c1ccccc12`, the GI50 in the experiment with M14, in the experiment with SK-OV-3, with CCRF-CEM, in the experiment with EKVX, with 786-0 and in the experiment on NCI-H226 was > 100 µM (inactive) in each case. Moreover, the GI50 in the experiment on SN12C, in the experiment with OVCAR-3, in the experiment with RXF 393, in the experiment on COLO 205, in the experiment on A498 and with UACC-257 was > 100 µM (inactive) in each case. The GI50 in the experiment on A549 was > 100 µM (inactive); with NCI-H522, > 100 µM (inactive); in the experiment on SK-MEL-5, > 100 µM (inactive); with HCT-15, greater than 100 µM; with OVCAR-4 it was > 100 µM (inactive); in the experiment with SR, 55 µM (inactive). In addition, the GI50 in the experiment with Malme-3M was > 100 µM (inactive).
For the molecule `N=C(N)NCC(N)C(=O)O` (stereo not drawn), the GI50 with M14, with SK-OV-3, in the experiment with EKVX, in the experiment with 786-0, with NCI-H226 and in the experiment with SN12C was > 100 µM (inactive) each time. In addition, the GI50 in the experiment on OVCAR-3, with RXF 393, with COLO 205, with A498, in the experiment with UACC-257 and in the experiment with A549 was > 100 µM (inactive) each time. The GI50 in the experiment on NCI-H522 is > 100 µM (inactive); in the experiment with SK-MEL-5, > 100 µM (inactive); in the experiment on HCT-15, greater than 100 µM; with OVCAR-4, > 100 µM (inactive); with SR, > 100 µM (inactive); in the experiment on Malme-3M, > 100 µM (inactive). For the same molecule, the GI50 in the experiment on KM12 was > 100 µM (inactive).
Turning to `Cc1c2cc[n+](C)cc2c(C)c2c1[nH]c1ccccc12`, the GI50 is 7.45 µM (inactive) in the experiment on M14; 4.88 µM (inactive) with SK-OV-3; 2.25 µM (inactive) with CCRF-CEM; 0.834 µM (active) in the experiment on EKVX; 0.312 µM (active) in the experiment with NCI-H226; 0.172 µM (active) in the experiment on SN12C. Further, the GI50 is 3.06 µM (inactive) with OVCAR-3; 1.7 µM (inactive) in the experiment with RXF 393; 0.538 µM (active) with COLO 205; 2.39 µM (inactive) in the experiment with A498; 6.41 µM (inactive) in the experiment with UACC-257; 0.249 µM (active) with A549. Also, the GI50 was 0.774 µM (active) in the experiment with NCI-H522; 1.28 µM (inactive) in the experiment on SK-MEL-5; 2.03 µM (inactive) in the experiment on OVCAR-4; 0.497 µM (active) in the experiment on SR; 0.953 µM (active) in the experiment on Malme-3M; 0.429 µM (active) in the experiment on KM12.
Consider `N[C@]1(C(=O)O)C[C@@H]2C(Br)=NO[C@@H]2C1`, for which the GI50 is > 100 µM (inactive) in the experiment with M14; > 100 µM (inactive) with SK-OV-3; 70.3 µM (inactive) in the experiment with EKVX; > 100 µM (inactive) with 786-0; > 100 µM (inactive) in the experiment on NCI-H226; > 100 µM (inactive) in the experiment with OVCAR-3. For the same molecule, the GI50 in the experiment on RXF 393, with COLO 205, with A498, in the experiment on UACC-257, in the experiment with A549 and with NCI-H522 was > 100 µM (inactive) throughout. Also, the GI50 in the experiment on SK-MEL-5 was > 100 µM (inactive); in the experiment with HCT-15 it was 76.9 µM; in the experiment with OVCAR-4 it was > 100 µM (inactive); in the experiment with SR, 78.9 µM (inactive); with Malme-3M it was > 100 µM (inactive); with KM12 it was > 100 µM (inactive).
Take `Cc1c2oc3c(C)ccc(C(=O)NC4C(=O)NC(C(C)O)C(=O)N5CCCC5C(=O)N(C)CC(=O)N(C)C(C(C)C)C(=O)OC4C)c3nc-2c(C(=O)NC2C(=O)NC(C(C)O)C(=O)N3CCCC3C(=O)N(C)CC(=O)N(C)C(C(C)C)C(=O)OC2C)c(N)c1=O` (stereo not drawn) (I: TTP[Sar][NMeV] / II: TTP[Sar][NMeV]; ester I:1-I:C, II:1-II:C; linker I:N-II:N via Actinocin(9to1); configuration not given here): the GI50 with M14 was 0.811 µM (active); in the experiment on SK-OV-3, 2.21 µM (inactive); in the experiment with CCRF-CEM, 0.119 µM (active); in the experiment with 786-0, 0.136 µM (active); in the experiment with NCI-H226, 0.0344 µM (active); with SN12C, 0.207 µM (active). Further, the GI50 in the experiment on OVCAR-3 was 0.28 µM (active); in the experiment on RXF 393, 0.0946 µM (active); in the experiment with COLO 205 it was 0.0528 µM (active); in the experiment with A498, 0.774 µM (active); in the experiment on UACC-257, 0.244 µM (active); with A549 it was 0.783 µM (active). Also, the GI50 in the experiment on NCI-H522 is 0.0766 µM (active); in the experiment with SK-MEL-5 it was 0.167 µM (active); in the experiment on HCT-15 it was 7.48 µM; with OVCAR-4 it was 0.931 µM (active); in the experiment with SR it was < 0.01 µM (active); in the experiment on Malme-3M, 0.125 µM (active). The GI50 in the experiment with KM12 was 0.185 µM (active).
Turning to `Cc1ccc(O)c(C(c2ccc([N+](=O)[O-])cc2)c2cc(C)ccc2O)c1`, the GI50 with M14 is 11.7 µM (inactive); in the experiment with SK-OV-3, 15.1 µM (inactive); in the experiment on CCRF-CEM, 10.8 µM (inactive); in the experiment on EKVX, 14.3 µM (inactive); in the experiment with 786-0, 21.2 µM (inactive); with NCI-H226, 15.9 µM (inactive). The GI50 was 13.7 µM (inactive) in the experiment with SN12C; 6.32 µM (inactive) in the experiment on OVCAR-3; 8.09 µM (inactive) with RXF 393; 20.7 µM (inactive) in the experiment with COLO 205; 18.4 µM (inactive) in the experiment on A498; 14.6 µM (inactive) in the experiment with UACC-257. The GI50 was 9.66 µM (inactive) in the experiment on A549; 12.3 µM (inactive) with NCI-H522; 5.75 µM (inactive) in the experiment with SK-MEL-5; 8.18 µM in the experiment on HCT-15; 10.5 µM (inactive) in the experiment with OVCAR-4; 3.98 µM (inactive) in the experiment on SR. Besides, the GI50 in the experiment with KM12 was 7.35 µM (inactive).
As to `CN(C)CC1CCC/C(=C\c2ccccc2)C1=O` (stereo not drawn), the GI50 with SK-OV-3 was 19.8 µM (inactive); in the experiment with CCRF-CEM, 0.959 µM (active); in the experiment with EKVX, 17.9 µM (inactive); in the experiment with 786-0 it was 2.65 µM (inactive); with NCI-H226 it was 2.82 µM (inactive); with SN12C it was 6.14 µM (inactive). Further, the GI50 was 1.94 µM (inactive) in the experiment on OVCAR-3; 2.84 µM (inactive) in the experiment on RXF 393; 2.24 µM (inactive) in the experiment on COLO 205; 17.4 µM (inactive) in the experiment with A498; 2.55 µM (inactive) in the experiment with UACC-257; 19 µM (inactive) in the experiment on A549. The GI50 in the experiment on NCI-H522 was 1.57 µM (inactive); in the experiment on SK-MEL-5 it was 8.79 µM (inactive); in the experiment with HCT-15, 2.14 µM; with OVCAR-4, 1.6 µM (inactive); with SR, 0.944 µM (active); in the experiment on Malme-3M, 1.85 µM (inactive). In addition, the GI50 in the experiment on KM12 was 1.19 µM (inactive).
For `FC(F)(F)c1ccc2c(c1)nc1n2C(c2c(Cl)cccc2Cl)SC1` (stereo not drawn), the GI50 with M14 is 16.1 µM (inactive); in the experiment on SK-OV-3, 25.8 µM (inactive); in the experiment with EKVX, 14.2 µM (inactive); in the experiment on 786-0 it was 16.6 µM (inactive); in the experiment on NCI-H226 it was 21.1 µM (inactive); in the experiment on SN12C, 16.9 µM (inactive). The GI50 with OVCAR-3 was 13.2 µM (inactive); with RXF 393 it was 14.4 µM (inactive); in the experiment with A498, 17.9 µM (inactive); in the experiment on UACC-257 it was 18.9 µM (inactive); with A549, 18.2 µM (inactive); with NCI-H522 it was 22 µM (inactive). For the same molecule, the GI50 was 21.6 µM with HCT-15; 18.3 µM (inactive) in the experiment on OVCAR-4; 20.7 µM (inactive) in the experiment with SR; 18.2 µM (inactive) with Malme-3M; 12.2 µM (inactive) in the experiment on KM12.
With `CC1=C2c3ccccc3N(C(=O)/C=C/C(=O)O)[C@H]2[C@H]2C(=O)OC(=O)[C@H]2C1`, the GI50 in the experiment on M14, with SK-OV-3, in the experiment on CCRF-CEM, in the experiment on EKVX, in the experiment with NCI-H226 and in the experiment on SN12C was > 10 µM (inactive) throughout. The GI50 in the experiment with OVCAR-3, with RXF 393, in the experiment with COLO 205, in the experiment on A498, in the experiment on A549 and in the experiment with NCI-H522 was > 10 µM (inactive) in each case. Moreover, the GI50 in the experiment on SK-MEL-5 is > 10 µM (inactive); in the experiment with HCT-15 it was greater than 10 µM; with OVCAR-4, > 10 µM (inactive); with SR, > 10 µM (inactive); with Malme-3M, > 10 µM (inactive); in the experiment with KM12, > 10 µM (inactive).
